In publication PMC7290078, “Agonist bias and agonist‐dependent antagonism at corticotrophin releasing factor receptors” (Pharmacology Research & Perspectives, 2020):
Entries after “also recorded” stand apart in the source; their conditions may differ.

What was measured:
CRF1 receptor (hCRF1α) = biological target: T1, CRF1 receptor (hCRF1α) (Homo sapiens, UniProt P34998); assay: Antagonism of agonist-mediated cAMP accumulation in Cos7 cells expressing CRF1 receptors; assay type: cell-based; conditions: for allosteric effect α / effect on agonist efficacy β: CRF1, operational model of allosterism; for antagonist potency (pKB): hCRF1α, global Schild analysis, mean ± SEM
T1 construct: host or cells: Cos7 cells, transient transfection (PEI), pcDNA3.0/3.1 vector
T1 sequence (P34998 24-415): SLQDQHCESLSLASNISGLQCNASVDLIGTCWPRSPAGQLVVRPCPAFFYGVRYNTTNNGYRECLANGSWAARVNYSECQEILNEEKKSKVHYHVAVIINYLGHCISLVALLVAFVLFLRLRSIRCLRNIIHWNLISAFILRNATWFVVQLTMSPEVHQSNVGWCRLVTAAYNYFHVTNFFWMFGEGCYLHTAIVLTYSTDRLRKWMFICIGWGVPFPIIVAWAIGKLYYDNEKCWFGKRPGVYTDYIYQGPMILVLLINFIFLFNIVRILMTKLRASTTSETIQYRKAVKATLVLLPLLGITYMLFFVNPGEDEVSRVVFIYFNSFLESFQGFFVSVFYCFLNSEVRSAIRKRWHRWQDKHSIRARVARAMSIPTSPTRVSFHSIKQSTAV

CRF1 receptor = conditions: cited from earlier work
CRF2 receptor (hCRF2α) = biological target: T2, CRF2 receptor (hCRF2α) (Homo sapiens, UniProt Q13324); assay: Antagonism of agonist-mediated IP1 accumulation in Cos7 cells expressing CRF2 receptors; assay type: cell-based
T2 construct: host or cells: Cos7 cells, transient transfection (PEI), pcDNA3.0/3.1 vector
T2 sequence (Q13324 1-411): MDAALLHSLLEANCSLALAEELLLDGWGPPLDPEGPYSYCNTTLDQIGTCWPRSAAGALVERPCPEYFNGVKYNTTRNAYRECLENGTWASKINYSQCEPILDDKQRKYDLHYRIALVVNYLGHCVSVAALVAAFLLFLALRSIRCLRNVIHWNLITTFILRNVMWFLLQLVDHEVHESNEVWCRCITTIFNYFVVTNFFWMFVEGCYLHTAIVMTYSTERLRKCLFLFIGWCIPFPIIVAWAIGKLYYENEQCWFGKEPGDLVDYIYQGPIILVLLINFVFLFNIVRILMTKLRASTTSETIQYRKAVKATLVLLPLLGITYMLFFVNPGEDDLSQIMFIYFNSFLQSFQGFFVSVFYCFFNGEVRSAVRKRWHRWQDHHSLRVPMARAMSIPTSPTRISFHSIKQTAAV
Description: Plasmids containing hCRF1α and hCRF2α (GenBank accession numbers AY457172 and AY449734) were obtained from the cDNA Resource Centre (Bloomsburg University) and are referred to as CRF1 and CRF2 in this manuscript. Hemagglutinin (HA) epitope‐tagged human Calcitonin (CT) receptor (CT(a) splice variant) and myc‐tagged human RAMP1 were used as described previously. ^27 HA‐tagged human calcitonin receptor‐like receptor (CLR), N‐terminal FLAG‐tagged human RAMP3 and N‐terminal myc‐tagged human RAMP3 were a gift from Professor David Poyner (Aston University) and Professor Patrick Sexton (Monash University), respectively. N‐terminal FLAG‐tagged human RAMP2 was used as described previously. ^28 All receptors and RAMPs were cloned in pcDNA3.0 or pcDNA3.1 plasmid vectors. All plasmid inserts were sequenced at the Centre for Genomics, Proteomics and Metabolomics (University of Auckland) and the sequences were verified prior to use.
Cos7, HEK‐293S, and HEK‐293T cells were cultured as described previously. ^28 , ^29 Cos7 cells were originally supplied by the ATCC to Associate Professor Nigel Birch (University of Auckland). HEK‐293S cells were a gift from Professor David Poyner (Aston University) and HEK‐293T cells a gift from Professor John Taylor (University of Auckland). Briefly, all cell lines were cultured in Dulbecco's Modified Eagle Medium (DMEM) supplemented with 8% heat inactivated fetal bovine serum (FBS) and maintained in a humidified incubator at 37°C with 5% CO2. For transfection, cells were counted (Countess CounterTM; Life Technologies) and plated at a density of 20 000 cells per well in 96‐well plates. […]
The IP‐one Gq assay kit (Cisbio) was used to quantify accumulated myo‐inositol‐1‐phosphate (IP1), a by‐product of IP3 produced after receptor‐mediated Gαq activation in Cos7 and HEK‐293S cells. […] Fifteen microliters of sample was then transferred to a 384‐well optiplate and read by an Envision plate reader (PerkinElmer). IP1 concentrations were calculated from a standard curve generated in duplicate. […]

CCC(CC)Nc1cc(C)nc(Oc2c(C)cc(C)cc2C)c1C [CP‐376,395]
partial agonism / intrinsic activity (CRF1 receptor (hCRF1α)): No intrinsic activity; also recorded: no evidence of partial agonism | effect of pre‐incubation on antagonism (CRF1 receptor (hCRF1α); 75 minute pre‐incubation, preliminary cAMP antagonism experiment): did not increase antagonism or result in a reduction of E max | effect on agonist E max (CRF1 receptor (hCRF1α); CRF and UCN1‐mediated cAMP, CRF1 receptor, F tests): no significant difference in E max values | allosteric effect α (CRF1 receptor (hCRF1α); agonist CRF, cAMP): 0.005 | effect on agonist efficacy β (CRF1 receptor (hCRF1α); agonist CRF, cAMP): 0.63 | antagonist potency (pKB) (CRF1 receptor (hCRF1α); agonist CRF, cAMP, n = 5): 6.90 ± 0.20 | allosteric effect α (CRF1 receptor (hCRF1α); agonist UCN1, cAMP): 0.03 | effect on agonist efficacy β (CRF1 receptor (hCRF1α); agonist UCN1, cAMP): 0.63 | antagonist potency (pKB) (CRF1 receptor (hCRF1α); agonist UCN1, cAMP, n = 5 (CP‐376,395), n = 3 (astressin2B)): 5.32 ± 0.14 | potency at CRF1 receptor compared to CRF2 receptor (CRF1 receptor (hCRF1α); antagonism of CRF‐induced cAMP signaling): at least 800 fold | potency at CRF1 receptor compared to CRF2 receptor (CRF1 receptor (hCRF1α); antagonism of UCN1‐induced cAMP signaling): ≥ 20 fold | mode of antagonism (CRF1 receptor (hCRF1α); cAMP accumulation): competitive antagonist of cAMP accumulation | selectivity (CRF1 receptor): selective for the CRF1 receptor | effect on CRF‐mediated IP1 accumulation (CRF2 receptor (hCRF2α); 100 µmol/L, CRF2 receptor): appeared to be abolished | effect on agonist E max (CRF2 receptor (hCRF2α); IP1, CRF2 receptor, F tests): a reduction in E max | antagonist potency (pKB) (CRF2 receptor (hCRF2α); agonist UCN1, IP1, hCRF2α, Gaddum method for insurmountable antagonism, mean ± SEM, n = 6): 3.40 ± 0.29
